# Assay results taken from article PMC10004634 (PLOS ONE, 2023).
# Where two headings read alike, the source gives them in different places.
# Tests used:
# Experiment in all cases: biochemical
# Parameters in all cases: KINOMEscan scanMAX competition binding, DNA-tagged kinases, qPCR read-out, percent control at 300 nM
# CSNK1A1L = biological target: T1, CSNK1A1L (Homo sapiens, UniProt Q8N752)
# T1 sequence (Q8N752 1-337): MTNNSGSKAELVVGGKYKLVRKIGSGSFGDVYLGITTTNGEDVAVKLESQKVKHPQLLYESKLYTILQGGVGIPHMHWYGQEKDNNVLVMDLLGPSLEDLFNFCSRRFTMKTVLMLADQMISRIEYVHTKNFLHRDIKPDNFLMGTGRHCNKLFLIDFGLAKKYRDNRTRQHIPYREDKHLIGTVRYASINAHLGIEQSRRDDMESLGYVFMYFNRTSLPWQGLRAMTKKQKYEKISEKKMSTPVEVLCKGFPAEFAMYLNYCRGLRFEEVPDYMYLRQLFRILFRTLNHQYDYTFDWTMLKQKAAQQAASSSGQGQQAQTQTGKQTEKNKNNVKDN
# [1] = biological target: T2, JAK2(JH1domain-catalytic) (Homo sapiens, UniProt O60674)
# T2 construct: JH1domain-catalytic
# TXK = biological target: T3, TXK (Homo sapiens, UniProt P42681)
# T3 sequence (P42681 1-527): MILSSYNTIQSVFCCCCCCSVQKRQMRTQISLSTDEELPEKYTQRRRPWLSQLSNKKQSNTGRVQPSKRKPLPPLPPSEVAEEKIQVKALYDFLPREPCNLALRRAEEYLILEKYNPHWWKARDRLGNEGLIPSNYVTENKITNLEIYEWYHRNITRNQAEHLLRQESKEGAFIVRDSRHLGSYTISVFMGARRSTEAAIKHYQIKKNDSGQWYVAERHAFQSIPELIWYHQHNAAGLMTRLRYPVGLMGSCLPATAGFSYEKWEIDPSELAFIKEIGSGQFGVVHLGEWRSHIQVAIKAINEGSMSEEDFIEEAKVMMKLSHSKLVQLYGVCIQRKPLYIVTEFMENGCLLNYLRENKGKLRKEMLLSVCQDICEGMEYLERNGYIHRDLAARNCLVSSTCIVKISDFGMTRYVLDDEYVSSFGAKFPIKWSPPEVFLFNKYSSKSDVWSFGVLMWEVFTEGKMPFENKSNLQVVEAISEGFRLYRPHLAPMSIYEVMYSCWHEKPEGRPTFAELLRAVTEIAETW
# [2] = biological target: T4, JAK1(JH2domain-pseudokinase) (Homo sapiens, UniProt P23458)
# T4 construct: JH2domain-pseudokinase
# FLT3(N841I) = biological target: T5, FLT3(N841I) (Homo sapiens, UniProt P36888, N841I)
# T5 sequence (P36888 1-993 N841I): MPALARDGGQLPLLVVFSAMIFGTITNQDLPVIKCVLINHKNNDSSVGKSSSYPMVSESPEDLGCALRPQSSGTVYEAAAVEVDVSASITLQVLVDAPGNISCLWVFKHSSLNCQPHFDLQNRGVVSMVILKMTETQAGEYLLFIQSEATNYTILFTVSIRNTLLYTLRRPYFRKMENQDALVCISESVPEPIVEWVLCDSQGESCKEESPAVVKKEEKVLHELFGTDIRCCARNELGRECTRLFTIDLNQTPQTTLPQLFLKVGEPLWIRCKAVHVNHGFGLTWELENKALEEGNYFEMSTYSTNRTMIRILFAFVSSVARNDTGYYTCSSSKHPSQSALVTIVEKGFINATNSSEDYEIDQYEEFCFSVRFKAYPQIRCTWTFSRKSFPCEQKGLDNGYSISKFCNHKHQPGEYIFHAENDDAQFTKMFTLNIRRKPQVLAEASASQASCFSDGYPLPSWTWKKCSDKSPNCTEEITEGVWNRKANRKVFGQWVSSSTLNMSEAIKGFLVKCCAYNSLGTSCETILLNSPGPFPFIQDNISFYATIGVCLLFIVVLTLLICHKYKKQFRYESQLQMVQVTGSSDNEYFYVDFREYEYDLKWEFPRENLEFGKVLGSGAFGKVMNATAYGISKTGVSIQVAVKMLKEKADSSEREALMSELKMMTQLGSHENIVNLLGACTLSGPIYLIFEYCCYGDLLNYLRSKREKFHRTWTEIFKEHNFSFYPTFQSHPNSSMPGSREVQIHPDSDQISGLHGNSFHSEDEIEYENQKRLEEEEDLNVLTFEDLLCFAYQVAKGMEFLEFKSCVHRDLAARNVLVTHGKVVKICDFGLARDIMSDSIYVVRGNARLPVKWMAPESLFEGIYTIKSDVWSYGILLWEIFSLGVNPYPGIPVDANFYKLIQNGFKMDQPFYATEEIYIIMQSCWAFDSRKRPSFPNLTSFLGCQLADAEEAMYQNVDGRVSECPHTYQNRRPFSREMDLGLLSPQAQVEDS
# [3] = read-out: Percent control / Tirabrutinib
# [4] = read-out: Percent control / Ibrutinib
# [5] = read-out: Percent control / Zanubrutinib
# [6] = read-out: Percent control / Acalabrutinib
# T2 sequence (O60674 whole entry): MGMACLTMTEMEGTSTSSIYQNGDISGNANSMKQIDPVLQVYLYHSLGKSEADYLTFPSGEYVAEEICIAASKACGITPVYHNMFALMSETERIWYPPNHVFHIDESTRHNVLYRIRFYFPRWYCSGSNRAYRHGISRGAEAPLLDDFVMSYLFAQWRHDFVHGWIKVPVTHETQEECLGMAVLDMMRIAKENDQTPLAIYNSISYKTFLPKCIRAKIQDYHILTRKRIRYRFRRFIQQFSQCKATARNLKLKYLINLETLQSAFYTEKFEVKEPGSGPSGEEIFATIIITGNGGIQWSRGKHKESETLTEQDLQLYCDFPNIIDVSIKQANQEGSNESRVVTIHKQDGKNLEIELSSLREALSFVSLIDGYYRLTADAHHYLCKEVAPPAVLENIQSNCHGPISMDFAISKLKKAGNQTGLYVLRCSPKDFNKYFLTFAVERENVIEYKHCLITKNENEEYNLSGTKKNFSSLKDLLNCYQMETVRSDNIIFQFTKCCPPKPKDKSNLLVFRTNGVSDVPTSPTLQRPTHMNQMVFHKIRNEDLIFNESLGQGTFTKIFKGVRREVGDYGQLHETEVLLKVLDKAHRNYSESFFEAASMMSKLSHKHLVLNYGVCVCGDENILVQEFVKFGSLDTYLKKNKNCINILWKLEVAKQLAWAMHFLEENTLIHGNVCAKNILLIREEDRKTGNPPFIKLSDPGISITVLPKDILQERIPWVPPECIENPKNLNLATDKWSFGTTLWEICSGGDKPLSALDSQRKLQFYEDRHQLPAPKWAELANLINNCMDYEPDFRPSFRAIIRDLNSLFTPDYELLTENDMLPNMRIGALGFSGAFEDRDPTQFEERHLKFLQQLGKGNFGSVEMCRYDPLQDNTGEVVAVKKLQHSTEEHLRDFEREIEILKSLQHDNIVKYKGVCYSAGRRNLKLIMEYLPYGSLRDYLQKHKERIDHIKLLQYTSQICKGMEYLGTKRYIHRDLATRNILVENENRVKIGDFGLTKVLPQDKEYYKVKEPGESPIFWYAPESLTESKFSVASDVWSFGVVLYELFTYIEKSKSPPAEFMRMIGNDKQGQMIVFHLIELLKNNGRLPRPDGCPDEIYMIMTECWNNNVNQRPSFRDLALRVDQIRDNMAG
# T4 sequence (P23458 whole entry): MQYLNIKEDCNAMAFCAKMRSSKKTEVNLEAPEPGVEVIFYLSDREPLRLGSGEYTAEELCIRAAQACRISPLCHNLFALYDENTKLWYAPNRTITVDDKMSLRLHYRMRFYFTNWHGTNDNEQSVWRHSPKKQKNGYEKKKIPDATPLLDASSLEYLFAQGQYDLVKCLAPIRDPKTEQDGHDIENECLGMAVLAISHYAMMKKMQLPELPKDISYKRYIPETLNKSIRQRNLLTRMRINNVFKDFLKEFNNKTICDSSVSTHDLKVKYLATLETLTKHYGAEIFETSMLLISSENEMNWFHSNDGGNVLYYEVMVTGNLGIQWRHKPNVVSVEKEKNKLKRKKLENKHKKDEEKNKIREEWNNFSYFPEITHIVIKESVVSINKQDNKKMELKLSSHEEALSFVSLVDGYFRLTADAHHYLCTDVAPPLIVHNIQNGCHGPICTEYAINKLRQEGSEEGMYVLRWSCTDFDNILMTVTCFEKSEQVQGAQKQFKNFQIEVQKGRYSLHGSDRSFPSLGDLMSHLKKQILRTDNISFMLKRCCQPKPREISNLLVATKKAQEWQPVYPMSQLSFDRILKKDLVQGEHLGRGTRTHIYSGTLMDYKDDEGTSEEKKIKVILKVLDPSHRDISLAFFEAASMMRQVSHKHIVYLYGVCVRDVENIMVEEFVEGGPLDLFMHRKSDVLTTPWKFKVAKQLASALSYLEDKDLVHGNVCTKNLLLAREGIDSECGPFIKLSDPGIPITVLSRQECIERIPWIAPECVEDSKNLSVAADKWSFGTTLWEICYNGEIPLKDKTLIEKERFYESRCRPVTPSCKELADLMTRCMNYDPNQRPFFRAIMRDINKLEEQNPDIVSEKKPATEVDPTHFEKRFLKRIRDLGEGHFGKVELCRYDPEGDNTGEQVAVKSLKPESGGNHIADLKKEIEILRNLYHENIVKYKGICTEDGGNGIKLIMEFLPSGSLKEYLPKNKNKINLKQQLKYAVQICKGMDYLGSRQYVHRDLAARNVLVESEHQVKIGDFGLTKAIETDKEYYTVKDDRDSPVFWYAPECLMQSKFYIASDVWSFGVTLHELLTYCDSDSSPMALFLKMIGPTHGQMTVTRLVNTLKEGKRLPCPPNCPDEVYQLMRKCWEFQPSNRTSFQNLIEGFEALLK
structure (smiles),measurement,setting,value
CC#CC(=O)N1CC[C@@H](n2c(=O)n(-c3ccc(Oc4ccccc4)cc3)c3c(N)ncnc32)C1 [Tirabrutinib],remaining binding at 0.3 µM,CSNK1A1L; [3],93%
same,remaining binding at 0.3 µM,[1]; [3],77%
same,remaining binding at 0.3 µM,TXK; [3],38%
same,remaining binding at 0.3 µM,[2]; [3],79%
C=CC(=O)N1CCC[C@@H](n2nc(-c3ccc(Oc4ccccc4)cc3)c3c(N)ncnc32)C1 [Ibrutinib],remaining binding at 0.3 µM,CSNK1A1L; [4],93%
same,remaining binding at 0.3 µM,TXK; [4],0.4%
same,remaining binding at 0.3 µM,[2]; [4],80%
same,remaining binding at 0.3 µM,FLT3(N841I); [4],39%
C=CC(=O)N1CCC([C@@H]2CCNc3c(C(N)=O)c(-c4ccc(Oc5ccccc5)cc4)nn32)CC1 [Zanubrutinib],remaining binding at 0.3 µM,CSNK1A1L; [5],83%
same,remaining binding at 0.3 µM,[1]; [5],96%
same,remaining binding at 0.3 µM,TXK; [5],14%
same,remaining binding at 0.3 µM,[2]; [5],88%
same,remaining binding at 0.3 µM,FLT3(N841I); [5],100%
CC#CC(=O)N1CCC[C@H]1c1nc(-c2ccc(C(=O)Nc3ccccn3)cc2)c2c(N)nccn12 [Acalabrutinib],remaining binding at 0.3 µM,CSNK1A1L; [6],84%
same,remaining binding at 0.3 µM,[1]; [6],85%
same,remaining binding at 0.3 µM,TXK; [6],43%
same,remaining binding at 0.3 µM,[2]; [6],99%
same,remaining binding at 0.3 µM,FLT3(N841I); [6],85%
